{
  "source": "patent US20030105118A1",
  "about": "“Tricyclic quinazolinediones” (priority 2002, published 2003)",
  "note": "pIC50: −log10 of the molar value. Where a name gives a salt, the structure may show the parent alone.",
  "data": [
    {"molecular_target": "T1, recombinant human PARP (Homo sapiens, UniProt P09874)", "T1 construct": "purchased Trevigen, Inc. (USA)", "T1 sequence (P09874 whole entry)": "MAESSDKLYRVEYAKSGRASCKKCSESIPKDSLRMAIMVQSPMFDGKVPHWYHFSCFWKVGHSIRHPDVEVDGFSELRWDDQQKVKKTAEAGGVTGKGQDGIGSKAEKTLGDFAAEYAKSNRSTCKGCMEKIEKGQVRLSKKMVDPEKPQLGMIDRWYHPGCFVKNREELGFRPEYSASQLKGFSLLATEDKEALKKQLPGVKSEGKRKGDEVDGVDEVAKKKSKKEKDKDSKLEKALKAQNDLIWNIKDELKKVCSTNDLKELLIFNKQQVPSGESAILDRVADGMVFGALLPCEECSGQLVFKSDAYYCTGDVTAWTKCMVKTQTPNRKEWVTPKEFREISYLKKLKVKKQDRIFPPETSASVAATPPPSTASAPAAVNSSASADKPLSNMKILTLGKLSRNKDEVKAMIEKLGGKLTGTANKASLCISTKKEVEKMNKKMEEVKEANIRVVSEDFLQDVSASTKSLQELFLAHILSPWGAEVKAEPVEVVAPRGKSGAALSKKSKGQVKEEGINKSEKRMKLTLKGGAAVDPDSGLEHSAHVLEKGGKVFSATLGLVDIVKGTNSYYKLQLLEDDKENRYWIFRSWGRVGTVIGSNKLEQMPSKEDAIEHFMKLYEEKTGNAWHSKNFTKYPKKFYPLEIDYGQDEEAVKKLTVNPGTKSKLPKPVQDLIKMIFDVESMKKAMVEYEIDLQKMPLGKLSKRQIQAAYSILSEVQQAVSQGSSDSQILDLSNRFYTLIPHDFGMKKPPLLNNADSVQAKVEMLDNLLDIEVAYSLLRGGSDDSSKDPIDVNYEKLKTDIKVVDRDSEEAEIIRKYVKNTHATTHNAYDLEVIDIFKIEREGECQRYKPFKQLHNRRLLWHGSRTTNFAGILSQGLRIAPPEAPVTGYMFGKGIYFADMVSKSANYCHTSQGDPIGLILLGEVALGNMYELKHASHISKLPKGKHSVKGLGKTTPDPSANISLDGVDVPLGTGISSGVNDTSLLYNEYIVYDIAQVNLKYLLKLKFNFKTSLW", "experiment": "PARP inhibitory activity ([3H]NAD incorporation, filter assay)", "assay_type": "biochemical", "settings": "recombinant human PARP 2 units/ml, 0.3 μM [3H]NAD, DNA 3 μg/ml, room temperature 1.5 hour, duplicate; read-out: IC50 (inhibitory rate of PARP activity)", "experimental": "PARP (recombinant human PARP, 660 units/mg) (Trevigen, Inc. (USA))\nA buffer (50 mM Tris-HCl (pH8.0)/25 mM MgCl2 aqueous solution) was used in preparation of each solution.\nTo a 96-well round bottom plate made of polypropylene were added successively a test compound solution (20 μl/well), 1 μM [^3H]NAD (specific activity: 7 kBq/ml) containing 10 μg/ml of DNA (30 μl/well), and 4 units/ml (6 μg/ml) PARP solution (50 μl/well), and the plate was placed under room temperature for 1.5 hour for the reaction (final concentrations of each reagent in the reaction solution: DNA: 3 μg/ml; [^3H]NAD: 0.3 μM/specific activity of 2.1 kBq/ml; PARP: 2 units/ml (3 μg/ml)). The reaction was terminated by addition of a 24 mM benzamide (9 μl/well, 2 mM after the addition), and the PARP in the reaction solution was recovered by using a cell harvester (HARVESTER 96 (registered trade name), TOMTEC Inc. (USA)) on the glass fiber filter for plate. Said glass fiber filter had been soaked with 80% ethanol just prior to the recovary of PARP, and after the recovary of PARP, each well of the plate was washed four times with 80% ethanol, and the washings were also passed through the glass fiber filter. Said glass fiber filter was dried by heating with a microwave oven for 3 to 4 minutes, and put into a sample bag being sandwiched between 2 solid scintillant sheets, and said sample bag was sealed by heat sealing. The bag was put on a heater at about 50° C. to melt the scintillant with heat in order to penetrate it into the filter. The plate was cooled to room temperature, and the [^3H] count of poly(ADP-ribose) (cpm) bound to PARP was measured with a counter for plate (1450 MicroBeta (registered trade name) TriLux, PerkinElmer, Inc. (USA)) for 10 minutes per plate.\nThe inhibitory rate of PARP activity was calculated by the following equation. [formula]\nThe inhibitory rate of each test compound was measured in duplicate, and an IC50 value thereof was calculated therefrom.", "values": [
      {"molecule": "O=c1[nH]c(=O)n2c3c(cccc13)CC2", "note": "[Example 1, 5,6-dihydro-1H-pyrrolo[3,2,1-ij]quinazoline-1,3(2H)-dione]", "pIC50": 6.85},
      {"molecule": "O=c1[nH]c(=O)n2c3c(cccc13)CCC2", "note": "[Example 2, 6,7-Dihydro-1H,5H-pyrido[3,2,1-ij]quinazoline-1,3(2H)-dione]", "pIC50": 7.28},
      {"molecule": "CN(C)c1ccc(C(=O)NCC2Cc3cccc4c(=O)[nH]c(=O)n(c34)C2)cc1", "note": "(centres unmarked) [Example 29, 4-(Dimethylamino)-N-[(1,3-dioxo-2,3,6,7-tetrahydro-1H,5H-pyrido[3,2,1-ij]quinazolin-6-yl)methyl]benzamide]", "pIC50": "> 8.30"},
      {"molecule": "O=C(NCC1Cc2cccc3c(=O)[nH]c(=O)n(c23)C1)C1CCNCC1", "note": "(centres unmarked) [Example 39, N-[(1,3-Dioxo-2,3,6,7-tetrahydro-1H,5H-pyrido[3,2,1-ij]quinazolin-6-yl)methyl]-4-piperidinecarboxamide hydrochloride]", "pIC50": 8.13}
    ]},
    {"test_system": "not given", "experiment": "not given", "settings": "not given", "values": [
      {"molecule": "Cl.NCC1CCc2cccc3c(=O)[nH]c(=O)n1c23", "note": "(centres unmarked)", "melting point": "> 300 °C"},
      {"molecule": "Cl.NCC1Cc2cccc3c(=O)[nH]c(=O)n1c23", "note": "(centres unmarked)", "melting point": "> 300 °C"},
      {"molecule": "Cl.NCC1CCn2c(=O)[nH]c(=O)c3cccc1c32", "note": "(centres unmarked)", "melting point": "190 °C (dec.)"},
      {"molecule": "Cl.NCCC(=O)NCC1Cc2cccc3c(=O)[nH]c(=O)n1c23", "note": "(centres unmarked)", "melting point": "290 to 296 °C (dec.)"},
      {"molecule": "Cl.NCc1ccc(C(=O)NCC2Cc3cccc4c(=O)[nH]c(=O)n(c34)C2)cc1", "note": "(centres unmarked)", "melting point": "> 300 °C"},
      {"molecule": "Cl.NC1Cc2cccc3c(=O)[nH]c(=O)n(c23)C1", "note": "(centres unmarked)", "melting point": "> 300 °C"},
      {"molecule": "O=c1[nH]c(=O)n2c3c(cccc13)CC2", "note": "[Example 1, 5,6-dihydro-1H-pyrrolo[3,2,1-ij]quinazoline-1,3(2H)-dione]", "melting point": "314 to 315 °C"},
      {"molecule": "O=c1[nH]c(=O)n2c3c(cccc13)CCC2", "note": "[Example 2, 6,7-Dihydro-1H,5H-pyrido[3,2,1-ij]quinazoline-1,3(2H)-dione]", "melting point": "282 to 284 °C"},
      {"molecule": "O=c1[nH]c(=O)n2c3c(cccc13)CCC2CO", "note": "(centres unmarked) [Example 3, 5-(hydroxymethyl)-6,7-dihydro-1H,5H-pyrido[3,2,1-ij]-quinazoline-1,3(2H)-dione]", "melting point": "205 to 207 °C"},
      {"molecule": "O=c1[nH]c(=O)n2c3c(cccc13)CC2CO", "note": "(centres unmarked) [Example 4, 5-(Hydroxymethyl)-5,6-dihydro-1H-pyrrolo[3,2,1-ij]quinazoline-1,3(2H)-dione]", "melting point": "238 to 240 °C"},
      {"molecule": "O=c1[nH]c(=O)n2c3c(cccc13)CC(CO)C2", "note": "(centres unmarked) [Example 5, 6-(Hydroxymethyl)-6,7-dihydro-1H,5H-pyrido[3,2,1-ij]quinazoline-1,3(2H)-dione]", "melting point": "252 to 254 °C"},
      {"molecule": "O=c1[nH]c(=O)n2c3c(cccc13)C(CO)CC2", "note": "(centres unmarked) [Example 6, 7-(Hydroxymethyl)-6,7-dihydro-1H,5H-pyrido[3,2,1-ij]quinazoline-1,3(2H)-dione]", "melting point": "226 °C (dec.)"},
      {"molecule": "O=c1[nH]c(=O)n2c3c(cccc13)CC(CBr)C2", "note": "(centres unmarked) [Example 9, 6-(Bromomethyl)-6,7-dihydro-1H,5H-pyrido[3,2,1-ij]quinazoline-1,3(2H)-dione]", "melting point": "267 to 270 °C (dec.)"},
      {"molecule": "O=c1[nH]c(=O)n2c3c(cccc13)C(CBr)CC2", "note": "(centres unmarked) [Example 10, 7-(Bromomethyl)-6,7-dihydro-1H,5H-pyrido[3,2,1-ij]quinazoline-1,3(2H)-dione]", "melting point": "225 °C (dec.)"},
      {"molecule": "O=C(NCC1Cc2cccc3c(=O)[nH]c(=O)n(c23)C1)c1ccncc1", "note": "(centres unmarked) [Example 23, N-[(1,3-Dioxo-2,3,6,7-tetrahydro-1H,5H-pyrido[3,2,1-ij]quinazolin-6-yl)methyl]isonicotinamide]", "melting point": "282 to 285 °C"},
      {"molecule": "O=C(NCC1Cc2cccc3c(=O)[nH]c(=O)n(c23)C1)c1ccccn1", "note": "(centres unmarked) [Example 24, N-[(1,3-Dioxo-2,3,6,7-tetrahydro-1H,5H-pyrido[3,2,1-ij]quinazolin-6-yl)methyl]-2-pyridinecarboxamide]", "melting point": "247 to 250 °C"},
      {"molecule": "O=C(Cc1ccccc1)NCC1Cc2cccc3c(=O)[nH]c(=O)n(c23)C1", "note": "(centres unmarked) [Example 26, N-[(1,3-Dioxo-2,3,6,7-tetrahydro-1H,5H-pyrido[3,2,1-ij]quinazolin-6-yl)methyl]-2-phenylacetamide]", "melting point": "275 °C (dec.)"},
      {"molecule": "CN(C)c1ccccc1C(=O)NCC1Cc2cccc3c(=O)[nH]c(=O)n(c23)C1", "note": "(centres unmarked) [Example 27, 2-(Dimethylamino)-N-[(1,3-dioxo-2,3,6,7-tetrahydro-1H,5H-pyrido[3,2,1-ij]quinazolin-6-yl)methyl]benzamide]", "melting point": "220 to 236 °C"},
      {"molecule": "CN(C)c1cccc(C(=O)NCC2Cc3cccc4c(=O)[nH]c(=O)n(c34)C2)c1", "note": "(centres unmarked) [Example 28, 3-(Dimethylamino)-N-[(1,3-dioxo-2,3,6,7-tetrahydro-1H,5H-pyrido[3,2,1-ij]quinazolin-6-yl)methyl]benzamide]", "melting point": "158 to 170 °C"},
      {"molecule": "CN(C)c1ccc(C(=O)NCC2Cc3cccc4c(=O)[nH]c(=O)n(c34)C2)cc1", "note": "(centres unmarked) [Example 29, 4-(Dimethylamino)-N-[(1,3-dioxo-2,3,6,7-tetrahydro-1H,5H-pyrido[3,2,1-ij]quinazolin-6-yl)methyl]benzamide]", "melting point": "268 to 278 °C (dec.)"},
      {"molecule": "O=C(NCC1Cc2cccc3c(=O)[nH]c(=O)n(c23)C1)C1CCCCC1", "note": "(centres unmarked) [Example 30, N-[(1,3-Dioxo-2,3,6,7-tetrahydro-1H,5H-pyrido[3,2,1-ij]quinazolin-6-yl)methyl]cyclohexanecarboxamide]", "melting point": "280 to 281 °C (dec.)"},
      {"molecule": "O=C(NCC1Cc2cccc3c(=O)[nH]c(=O)n(c23)C1)c1cnccn1", "note": "(centres unmarked) [Example 31, N-[(1,3-Dioxo-2,3,6,7-tetrahydro-1H,5H-pyrido[3,2,1-ij]quinazolin-6-yl)methyl]-2-pyrazinecarboxamide]", "melting point": "255 to 257 °C (dec.)"},
      {"molecule": "O=C(NCC1Cc2cccc3c(=O)[nH]c(=O)n(c23)C1)c1ccnnc1", "note": "(centres unmarked) [Example 32, N-[(1,3-Dioxo-2,3,6,7-tetrahydro-1H,5H-pyrido[3,2,1-ij]quinazolin-6-yl)methyl]-4-pyridazinecarboxamide]", "melting point": "279 to 281 °C (dec.)"},
      {"molecule": "CN(C)Cc1ccc(C(=O)NCC2Cc3cccc4c(=O)[nH]c(=O)n(c34)C2)cc1", "note": "(centres unmarked) [Example 33, 4-[(Dimethylamino)methyl]-N-[(1,3-dioxo-2,3,6,7-tetrahydro-1H,5H-pyrido[3,2,1-ij]quinazolin-6-yl)methyl]benzamide]", "melting point": "240 to 243 °C (dec.)"},
      {"molecule": "CN1CCC(C(=O)NCC2Cc3cccc4c(=O)[nH]c(=O)n(c34)C2)CC1", "note": "(centres unmarked) [Example 34, N-[(1,3-Dioxo-2,3,6,7-tetrahydro-1H,5H-pyrido[3,2,1-ij]quinazolin-6-yl)methyl]-1-methyl-4-piperidinecarboxamide]", "melting point": "246 to 250 °C (dec.)"},
      {"molecule": "O=C(NCC1Cc2cccc3c(=O)[nH]c(=O)n(c23)C1)C1CCN(Cc2ccccc2)CC1", "note": "(centres unmarked) [Example 35, 1-Benzyl-N-[(1,3-dioxo-2,3,6,7-tetrahydro-1H,5H-pyrido[3,2,1-ij]-quinazolin-6-yl)methyl]-4-piperidinecarboxamide]", "melting point": "240 to 242 °C (dec.)"},
      {"molecule": "O=c1[nH]c(=O)n2c3c(cccc13)C(O)C2", "note": "(centres unmarked) [Example 46, 6-hydroxy-5,6-dihydro-1H-pyrrolo[3,2,1-ij]quinazoline-1,3(2H)-dione]", "melting point": "260 to 266 °C (dec.)"},
      {"molecule": "O=c1[nH]c(=O)n2c3c(cccc13)CCCC2", "note": "[Example 48, 5,6,7,8-Tetrahydro-1H-azepino[3,2,1-ij]quinazoline-1,3(2H)-dione]", "melting point": "192 to 196 °C"}
    ]}
  ]
}
